Data on three compounds can be found in ChEMBL document CHEMBL5465560, “Selectivity Literature for EUbOPEN Chemogenomic Library” (2024).

The target in assay [1] is T1, Serine/threonine-protein kinase D2 (Homo sapiens) (UniProt Q9BZL6).
T1 sequence (whole entry): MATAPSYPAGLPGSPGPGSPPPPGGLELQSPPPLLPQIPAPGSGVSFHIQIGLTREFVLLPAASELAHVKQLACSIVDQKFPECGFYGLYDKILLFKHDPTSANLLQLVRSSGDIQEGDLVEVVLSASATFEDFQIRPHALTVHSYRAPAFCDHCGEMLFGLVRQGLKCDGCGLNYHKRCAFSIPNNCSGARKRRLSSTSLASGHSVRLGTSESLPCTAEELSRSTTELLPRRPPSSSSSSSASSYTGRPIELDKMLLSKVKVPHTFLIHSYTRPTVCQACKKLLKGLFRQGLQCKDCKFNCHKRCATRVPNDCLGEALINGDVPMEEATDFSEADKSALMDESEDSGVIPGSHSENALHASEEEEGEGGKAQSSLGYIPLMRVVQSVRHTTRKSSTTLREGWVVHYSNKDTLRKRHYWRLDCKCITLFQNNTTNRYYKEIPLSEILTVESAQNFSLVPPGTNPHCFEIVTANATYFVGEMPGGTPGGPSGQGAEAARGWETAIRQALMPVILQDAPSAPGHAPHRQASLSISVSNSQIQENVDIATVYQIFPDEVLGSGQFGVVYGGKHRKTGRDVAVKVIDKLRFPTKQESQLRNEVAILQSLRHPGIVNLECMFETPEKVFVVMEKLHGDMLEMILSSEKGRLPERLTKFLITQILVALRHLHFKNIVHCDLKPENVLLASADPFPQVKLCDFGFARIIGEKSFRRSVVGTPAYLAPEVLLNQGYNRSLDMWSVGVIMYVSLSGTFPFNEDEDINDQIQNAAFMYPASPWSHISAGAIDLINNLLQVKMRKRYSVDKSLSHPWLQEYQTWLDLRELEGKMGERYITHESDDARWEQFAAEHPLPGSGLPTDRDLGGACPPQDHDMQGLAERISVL
Nature of the assay: Selectivity interaction (ActivX KiNativ screen (ex vivo kinase selectivity in human PBMCs)) EUB0001619a PRKD2. Type of assay: cell-based. As to conditions: PBMC, at 1 µM.

The target of assay [2] is T2, Serine/threonine-protein kinase Nek1 (Homo sapiens) (UniProt Q96PY6).
T2 sequence (whole entry): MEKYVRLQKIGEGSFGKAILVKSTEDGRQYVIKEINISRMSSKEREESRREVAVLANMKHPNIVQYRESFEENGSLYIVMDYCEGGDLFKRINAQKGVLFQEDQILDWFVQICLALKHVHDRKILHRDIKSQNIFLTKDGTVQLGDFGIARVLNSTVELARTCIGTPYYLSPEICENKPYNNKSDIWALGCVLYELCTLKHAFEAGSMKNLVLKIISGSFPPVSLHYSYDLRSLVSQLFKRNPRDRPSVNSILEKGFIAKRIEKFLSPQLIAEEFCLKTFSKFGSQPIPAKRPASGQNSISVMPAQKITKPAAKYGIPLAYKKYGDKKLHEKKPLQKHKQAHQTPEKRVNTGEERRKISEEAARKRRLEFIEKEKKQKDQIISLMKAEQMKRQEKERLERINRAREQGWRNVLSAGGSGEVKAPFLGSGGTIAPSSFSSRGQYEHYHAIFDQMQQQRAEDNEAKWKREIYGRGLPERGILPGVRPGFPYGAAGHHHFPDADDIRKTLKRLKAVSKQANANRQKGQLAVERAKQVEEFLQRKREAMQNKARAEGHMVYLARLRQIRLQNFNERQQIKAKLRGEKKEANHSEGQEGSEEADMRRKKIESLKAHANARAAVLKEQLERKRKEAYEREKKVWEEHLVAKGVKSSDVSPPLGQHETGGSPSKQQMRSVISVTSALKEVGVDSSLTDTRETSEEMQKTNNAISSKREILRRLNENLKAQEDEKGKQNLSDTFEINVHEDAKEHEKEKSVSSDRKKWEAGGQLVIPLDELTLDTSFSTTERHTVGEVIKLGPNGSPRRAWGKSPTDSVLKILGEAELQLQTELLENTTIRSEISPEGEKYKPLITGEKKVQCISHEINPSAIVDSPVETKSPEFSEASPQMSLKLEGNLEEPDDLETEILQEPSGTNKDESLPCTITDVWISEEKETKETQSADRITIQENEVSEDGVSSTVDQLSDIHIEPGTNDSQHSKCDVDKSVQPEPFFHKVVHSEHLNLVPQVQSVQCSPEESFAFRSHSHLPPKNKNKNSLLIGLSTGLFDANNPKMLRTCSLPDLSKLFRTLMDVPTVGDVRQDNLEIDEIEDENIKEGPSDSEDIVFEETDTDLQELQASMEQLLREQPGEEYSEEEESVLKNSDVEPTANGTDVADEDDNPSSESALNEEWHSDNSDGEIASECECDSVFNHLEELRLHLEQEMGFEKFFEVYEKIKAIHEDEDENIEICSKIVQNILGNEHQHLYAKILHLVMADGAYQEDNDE
As to conditions: at 10 µM.

Assay [3] concerns the target T3, Dual specificity mitogen-activated protein kinase kinase 6 (Homo sapiens) (UniProt P52564).
T3 sequence (whole entry): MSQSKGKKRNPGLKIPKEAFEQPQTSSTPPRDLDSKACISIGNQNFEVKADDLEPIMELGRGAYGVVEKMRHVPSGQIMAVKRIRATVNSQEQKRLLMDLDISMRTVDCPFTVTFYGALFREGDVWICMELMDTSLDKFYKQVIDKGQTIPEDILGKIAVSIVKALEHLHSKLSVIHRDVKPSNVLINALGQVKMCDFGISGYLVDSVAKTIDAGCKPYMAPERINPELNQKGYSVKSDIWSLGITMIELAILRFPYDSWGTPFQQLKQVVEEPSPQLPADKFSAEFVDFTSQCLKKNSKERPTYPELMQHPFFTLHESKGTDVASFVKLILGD
As to conditions: at 10 µM.

For assay [4], the target named is T4, Rhodopsin kinase GRK7 (Homo sapiens) (UniProt Q8WTQ7).
T4 sequence (whole entry): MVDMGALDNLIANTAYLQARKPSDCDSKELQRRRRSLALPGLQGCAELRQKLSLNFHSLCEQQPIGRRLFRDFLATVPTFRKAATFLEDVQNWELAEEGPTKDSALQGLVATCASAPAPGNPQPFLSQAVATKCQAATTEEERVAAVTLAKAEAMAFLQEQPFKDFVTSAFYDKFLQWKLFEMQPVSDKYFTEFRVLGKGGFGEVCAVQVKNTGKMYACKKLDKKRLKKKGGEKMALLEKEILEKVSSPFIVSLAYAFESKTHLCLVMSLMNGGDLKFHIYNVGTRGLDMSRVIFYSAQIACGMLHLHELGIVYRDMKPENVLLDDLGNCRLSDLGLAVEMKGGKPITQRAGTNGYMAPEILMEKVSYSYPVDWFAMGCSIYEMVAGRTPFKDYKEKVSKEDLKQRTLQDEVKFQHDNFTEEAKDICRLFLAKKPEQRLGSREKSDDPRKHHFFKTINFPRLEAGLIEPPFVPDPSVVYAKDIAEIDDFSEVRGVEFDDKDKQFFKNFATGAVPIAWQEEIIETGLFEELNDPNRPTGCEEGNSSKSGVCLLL
Nature of the assay: Selectivity interaction (KinomeScan (DiscoverX)) EUB0000666a GRK7. As to conditions: at 10 µM.

On to `N#Cc1cccc(-c2c[nH]c3ncnc(N4CCOCC4)c23)c1`, for which, in assay [1], the % of inhibition was -2%. As for `CCN(CC)CCCCNc1ncc2cc(-c3cc(OC)cc(OC)c3)c(NC(=O)NC(C)(C)C)nc2n1`, the % of control in assay [2] and in assay [3] was 100% in each case. In assay [4], `O=C(NOC[C@H](O)CO)c1ccc(F)c(F)c1Nc1ccc(I)cc1F` showed a % of control of 100%.
